These results are taken from article PMC12040169 (PLOS Biology, 2025).

What is called viability is a read-out of living cells in per cent, often relative to untreated cells.

The series can be described thus: in vitro. The following applies: human, hela cells, % viability.

Turning to `CCN(CC)C(=O)Cn1ncc2c3sc(C)cc3n(C)c2c1=O` [CBK284156], the viability at 28.5 h, 10 µM came out at 92.9%.

Consider `CCN1CC2(CCN(CCCN(C)C)CC2)c2ccccc21` [CBK136988], for which the viability at 28.5 h, 10 µM amounted to 84.5%.

With `OCc1nnc2c3ccccc3c(-c3ccccc3)nn12` [CBK269927], the viability at 28.5 h, 10 µM is 94.2%.

For the compound `COc1ccc(C)cc1S(=O)(=O)NCCO` [CBK267881], the viability at 28.5 h, 10 µM was 98.4%.

Take `Cc1ccc(C)c(NC(=O)CSc2nnc(CCc3ccccc3)n2C)c1` [CBK266365]: the viability at 28.5 h, 10 µM was determined as 93.7%.

Take `O=C(Cc1ccsc1)N1CCN(c2ncccn2)CC1` [CBK144525]: the viability at 28.5 h, 10 µM was 105%.

Regarding `COc1ccc(Cl)cc1C(=O)Nc1cnn(CCCC(=O)O)c1` [CBK269855], the viability at 28.5 h, 10 µM turned out to be 80.7%.

Consider `O=C(NCCc1c[nH]c2ccc(Cl)cc12)c1ccc(Cl)cc1Br` [CBK159755], for which the viability at 28.5 h, 10 µM stood at 96.3%.

As for `CCOC(=O)c1cccnc1-c1cncnc1` [CBK149236], the viability at 28.5 h, 10 µM stood at 118%.

For `O=C(c1ccc(F)cc1)N1C[C@@H](c2ccsc2)[C@@H]2CN(Cc3cccc(F)c3)CC[C@@H]21` [CBK285640], the viability at 28.5 h, 10 µM was determined as 91.2%.

On to `CN1CCC(=NNC(=O)CN(c2cccc([N+](=O)[O-])c2)S(=O)(=O)c2ccccc2)CC1` [CBK262727], for which the viability at 28.5 h, 10 µM turned out to be 90.3%.

For `COc1nccc(N2CCN(C(=O)C3CC3)CC(O)C2)c1C#N` (centres unmarked) [CBK306613], the viability at 28.5 h, 10 µM was found to be 79.1%.

For the compound `CS(=O)(=O)Nc1cc2cccnc2c(-c2ccc3c(c2)CCO3)n1` [CBK085705], the viability at 28.5 h, 10 µM is 101%.

On to `Cc1ccccc1OC(C)C(=O)Nn1cnnc1` (centres unmarked) [CBK268619], for which the viability at 28.5 h, 10 µM turned out to be 96.2%.

Turning to `Cc1ccccc1C(=O)Nc1ccc(F)c(F)c1` [CBK058249], the viability at 28.5 h, 10 µM came out at 96.1%.

As to `CN(C)CCSc1nc2cc(Cl)ccc2o1` [CBK266337C], the viability at 28.5 h, 10 µM is 96.6%.

In the case of `O=C(NCc1ccccc1)c1ccc2nc[nH]c2c1` [CBK143739], the viability at 28.5 h, 10 µM is 91.9%.

Consider `Cc1cc(NC(=O)C(C)C)nc2c1c(=O)oc1ccccc12` [CBK287441], for which the viability at 28.5 h, 10 µM was determined as 89.7%.

For `CCn1c(C2CC(=O)N(c3ccc(C)cc3C)C2)nc2ccccc21` (centres unmarked) [CBK287505], the viability at 28.5 h, 10 µM came out at 83.1%.

Regarding `Cc1cc(Br)cc(C)c1NC(=O)CSc1nnc(COc2ccccc2Cl)o1` [CBK264968], the viability at 28.5 h, 10 µM came out at 93%.

As for `Cn1cc(CC(=O)Nc2ccc(N3CCNCC3)nc2)c2ccccc21` [CBK028275T], the viability at 28.5 h, 10 µM came to 72.1%.

In the case of `COc1ccc(Cl)cc1NC(=O)C(=O)NCC1CCCO1` (centres unmarked) [CBK263823], the viability at 28.5 h, 10 µM was 91.8%.

As to `CCCc1nc(SC)ncc1C(=O)Nc1nnc(SCC)s1` [CBK291198], the viability at 28.5 h, 10 µM was found to be 108%.

As for `Cc1cc(C)c2c(CC(=O)NNC(=O)COc3ccccc3)coc2c1` [CBK269169], the viability at 28.5 h, 10 µM amounted to 94.1%.

On to `CCc1c(C(=O)NC2CCCOC2)[nH]c2ccc(F)cc12` (centres unmarked) [CBK283115], for which the viability at 28.5 h, 10 µM came out at 97.5%.

As for `COCCN(Cc1ccccc1C)C(=O)C1CCc2nn(C)c(=O)n2C1` (centres unmarked) [CBK306934], the viability at 28.5 h, 10 µM amounted to 80.8%.

Take `CCc1ccc(OC)c(S(=O)(=O)N2CCOCC2)c1` [CBK268214]: the viability at 28.5 h, 10 µM is 117%.

As to `CCCOCCCNS(=O)(=O)c1ccc(C(C)(C)CC)cc1` [CBK044821], the viability at 28.5 h, 10 µM was determined as 106%.

As to `CSc1cccc(NC(=O)c2sc3nc(C)cc(C)c3c2N)c1` [CBK115349], the viability at 28.5 h, 10 µM worked out at 94.7%.

Regarding `c1coc(-c2cc(Nc3ccc4[nH]ccc4c3)ncn2)c1` [CBK090862], the viability at 28.5 h, 10 µM was determined as 95.5%.

With `Fc1ccccc1CN1CCN(Cc2ccccn2)CC1` [CBK265194G], the viability at 28.5 h, 10 µM came out at 100%.

As for `CC(C)(C)OC(=O)N1CCC[C@]2(CCC(=O)N2)[C@H]1c1cccc(F)c1` [CBK283463], the viability at 28.5 h, 10 µM stood at 96.7%.

`CCc1nc(CN(C)C2CCN(CC(=O)NCc3ccco3)C2)no1` (centres unmarked) [CBK305328]: the viability at 28.5 h, 10 µM is 111%.

Take `COC(=O)CCc1ccc(S(=O)(=O)N2CCCN(Cc3cc(Cl)cc(Cl)c3)CC2)cc1` [CBK062982]: the viability at 28.5 h, 10 µM came out at 97.2%.

On to `COCC1CCN(c2ncc(C#N)cc2Cl)CC1` [CBK306410], for which the viability at 28.5 h, 10 µM came out at 61.1%.

Take `O=C(Cc1ccccc1)Nc1nc(OCC(F)(F)F)cnc1-c1ccsc1` [CBK145298]: the viability at 28.5 h, 10 µM worked out at 102%.

With `Cc1ccc(OCc2cc(-c3ccco3)on2)c([N+](=O)[O-])n1` [CBK233261], the viability at 28.5 h, 10 µM amounted to 98.8%.

For `CCOC(=O)c1cnc(Nc2nc3ccccc3o2)nc1CN1CCN(c2ccccc2)CC1` [CBK266927], the viability at 28.5 h, 10 µM came to 93.1%.

With `COc1ccc(NC(=O)c2nn(-c3nc4ccccc4o3)c3ccccc23)cc1` [CBK048492], the viability at 28.5 h, 10 µM came to 93.8%.

Take `Nc1ncc(-c2cncnc2)nc1NCC1CCOCC1` [CBK063877]: the viability at 28.5 h, 10 µM was 98.1%.

In the case of `O=C(Cn1nnc2ccccc21)N/N=C\c1cccc(Cl)c1Cl` [CBK262931], the viability at 28.5 h, 10 µM is 92.4%.

Turning to `O=C(Cc1cccc2ccccc12)NC(=S)Nc1cccc(C(=O)O)c1` [CBK267471], the viability at 28.5 h, 10 µM amounted to 90.7%.

As to `O=C(NC(c1ccccc1)c1ccsc1)C1CCN(S(=O)(=O)c2cccc(Cl)c2)CC1` (centres unmarked) [CBK060188], the viability at 28.5 h, 10 µM was 97.7%.

`C(=C\c1ccc(-c2nnc(CSCCOc3ccccc3)o2)cc1)/CN1CCCC1` [CBK081376]: the viability at 28.5 h, 10 µM was determined as 98.5%.

Take `O=[N+]([O-])c1ccc(N2CCNCC2)cc1NCCO` [CBK262851]: the viability at 28.5 h, 10 µM is 75.1%.

Take `COc1cc(/C=C2\C(=O)NC(=O)N(c3ccc(O)cc3)C2=O)cc(I)c1O` [CBK264298]: the viability at 28.5 h, 10 µM (bulk resorufin, single well) amounted to 114%.

On to `Cc1ccc(S(=O)(=O)NC(=O)N2CC3(C)CC2CC(C)(C)C3)cc1` (centres unmarked) [CBK023512], for which the viability at 28.5 h, 10 µM is 110%.

`Cc1ccccc1-c1ccc2n(c1=O)C[C@H]1C[C@@H]2CN(C(=O)CCC(=O)O)C1` [CBK289181]: the viability at 28.5 h, 10 µM worked out at 111%.

On to `COc1ccc(C2(C)NC(=O)N(CC(=O)Nc3ccc(NC(C)=O)cc3)C2=O)cc1` (centres unmarked) [CBK295182], for which the viability at 28.5 h, 10 µM worked out at 106%.

Take `Cn1cc(CCNC(=O)N(Cc2ccccn2)CC2CCCO2)cn1` (centres unmarked) [CBK306973]: the viability at 28.5 h, 10 µM amounted to 99.2%.

For `Cc1cc(CN(C)Cc2ccc3c(c2)n(C)c(=O)n3C)n[nH]1` [CBK281705], the viability at 28.5 h, 10 µM turned out to be 101%.

As for `COc1cc(C(=O)N2CCC(N3C(=O)Cc4ccccc43)CC2)ccc1C` [CBK155465], the viability at 28.5 h, 10 µM (bulk resorufin, single well) stood at 84.2%.

For the compound `c1cc(-c2cncc(-c3ccsc3)n2)cs1` [CBK113356], the viability at 28.5 h, 10 µM is 95.7%.

In the case of `Cc1ccnc(N2C(=O)c3ccc(C(=O)c4ccc5c(c4)C(=O)N(c4cc(C)ccn4)C5=O)cc3C2=O)c1` [CBK263041], the viability at 28.5 h, 10 µM came out at 93.4%.

Take `Cc1nc(CC(=O)Nc2nn(C)c3cccc(N4CCOCC4)c23)cs1` [CBK306627]: the viability at 28.5 h, 10 µM stood at 89.7%.

As for `CCn1nc(C(C)C)cc1C(=O)N1CCN(C)CC1c1ccccc1` (centres unmarked) [CBK282025], the viability at 28.5 h, 10 µM was determined as 100%.

Consider `CS(=O)(=O)c1ccc(Cn2ccnc(N3CCN(C(=O)C4CCCCC4)CC3)c2=O)cc1` [CBK153771], for which the viability at 28.5 h, 10 µM stood at 90.3%.

As to `Brc1ccc(OCc2ccccc2)c(CNCCN2CCOCC2)c1` [CBK278171C], the viability at 28.5 h, 10 µM came out at 97%.

For `COc1ccccc1C(=O)Nc1ccc2nc(SCC(=O)NC3CC3)sc2c1` [CBK070791], the viability at 28.5 h, 10 µM was found to be 92.7%.

In the case of `N#CCCn1cc(C(=O)N2CCCCC2)c(-c2ccccc2)n1` [CBK305931], the viability at 28.5 h, 10 µM was determined as 100%.

As to `CC1CCCCC1NC(=O)Cn1ncn2c(cc3ccsc32)c1=O` (centres unmarked) [CBK284196], the viability at 28.5 h, 10 µM worked out at 91.8%.

In the case of `COCCCNC(=O)c1cnn2c(C)c(Cc3ccccc3Br)c(C)nc12` [CBK071628], the viability at 28.5 h, 10 µM came to 101%.

For the compound `COCCOCCOc1ccccc1OCCOCCOC` [CBK009636], the viability at 28.5 h, 10 µM was 89%.

In the case of `O=C(N[C@H]1CCN2C(=O)N(c3cccc4nsnc34)C(=O)[C@@H]2C1)c1ccnc(Cl)c1` [CBK289545], the viability at 28.5 h, 10 µM was found to be 91.2%.

With `COc1cc(C#N)ccc1OCc1cc(C)on1` [CBK002581], the viability at 28.5 h, 10 µM was 86.1%.

Turning to `c1cncc(-c2nc(NCCN3CCOCC3)c3ccccc3n2)c1` [CBK264566C], the viability at 28.5 h, 10 µM came out at 91%.

For `O=C(N[C@@H]1C[C@H]1c1ccccc1)N1CCC2(CC1)OCc1cc(F)ccc1O2` [CBK060724], the viability at 28.5 h, 10 µM (bulk resorufin, single well) turned out to be 82.1%.

On to `CS(=O)(=O)Nc1nccnc1N1CCN(Cc2ccc(Cl)c(Cl)c2)CC1` [CBK084267], for which the viability at 28.5 h, 10 µM stood at 98.7%.

On to `CNC(=O)c1sc2ccccc2c1C1CCN(C(=O)Cc2coc3c(C)c(C)ccc23)C1` (centres unmarked) [CBK285876], for which the viability at 28.5 h, 10 µM was determined as 90.3%.

In the case of `Cc1c(CN2CCCC(c3cc4cccnc4[nH]3)C2)cnn1C` (centres unmarked) [CBK284683], the viability at 28.5 h, 10 µM turned out to be 99.7%.

On to `Cc1c(Cc2ccccc2)c(N2CCN(C3c4ccccc4-c4ccccc43)CC2)n2c(nc3ccccc32)c1C#N` [CBK263124], for which the viability at 28.5 h, 10 µM is 111%.

Take `COCCCn1cnnc1C(C)NC(=O)N(C)Cc1nccs1` (centres unmarked) [CBK306702]: the viability at 28.5 h, 10 µM worked out at 111%.

As to `Cc1c(CN2CCC(CO)C2)cnn1Cc1ccccc1` (centres unmarked) [CBK282113], the viability at 28.5 h, 10 µM was 99.5%.

Regarding `Cc1nccn1C1CCCN(C(C)C(=O)NC2(C#N)CCCCC2)C1` (centres unmarked) [CBK304194], the viability at 28.5 h, 10 µM came out at 87.3%.

Regarding `Cn1nc(-c2ccc(F)cc2)n(-c2ccncc2)c1=O` [CBK282294], the viability at 28.5 h, 10 µM was 96.5%.

Consider `COc1ccc(-n2c(S)nnc2-c2cc(C(C)(C)C)n[nH]2)cc1` [CBK269071], for which the viability at 28.5 h, 10 µM turned out to be 97.9%.

In the case of `CSc1nnc(SCC(=O)N2CCC(C(F)(F)F)CC2)s1` [CBK057829], the viability at 28.5 h, 10 µM worked out at 111%.

Regarding `COc1ccc(C(=O)N2CCN(Cc3ccc(SC)cc3)CC2)cc1` [CBK058613], the viability at 28.5 h, 10 µM is 112%.

Regarding `CC(C)c1cccc(-n2cc(O)c(C(=O)NCCC(=O)N(C)C)n2)c1` [CBK305234], the viability at 28.5 h, 10 µM came to 86.5%.

For the compound `Nn1c(CSc2ccccn2)nnc1CSc1ccccn1` [CBK266987], the viability at 28.5 h, 10 µM came to 90.8%.
